Measured values published in BindingDB's records for doi:10.3109/14756366.2011.604851 (Shandong University, 2012).

Assays:
[1] = biological target: T1, Gag-Pol polyprotein (Human immunodeficiency virus type 1 group M subtype B (isolate HXB2), UniProt P04585); assay: 3'-P Inhibitory Assay
Experimental: Cleavage of a dinucleotide from each 3'-end of viral cDNA. All biological assays were performed essentially as previously described [Dayam et al., J. Med. Chem., 51:1136-1144].

[2] = biological target: T1, Gag-Pol polyprotein; assay: ST Inhibitory Assay
Experimental: Insertion of two newly processed 3'-viral DNA ends into the host-cell chromosome. All biological assays were performed essentially as previously described [Dayam et al., J. Med. Chem., 51:1136-1144].

CC(=O)Oc1ccc(/C=C/C(=O)Nc2ccc(S(=O)(=O)Nc3ccc(Cl)c(Cl)c3)cc2)cc1OC(C)=O [(E)-3-(3,4-Diacetoxyphenyl)-N-(4-(3,4-Dichlorophenylsulfamoyl)phenyl)acrylamide (10h)] gave an IC50 [1] of 75 µM and an IC50 [2] of 7 µM.

Compound CC(=O)Oc1ccc(/C=C/C(=O)Nc2ccc(S(=O)(=O)Nc3ccc(F)c(F)c3)cc2)cc1OC(C)=O [(E)-3-(3,4-Diacetoxyphenyl)-N-(4-(3,4-Difluorophenylsulfamoyl)phenyl)acrylamide (10b)] has an IC50 [1] of 60 µM and an IC50 [2] of 11 µM.

CC(=O)Oc1ccc(/C=C/C(=O)Nc2ccc(S(=O)(=O)Nc3cc(C)cc(C)c3)cc2)cc1OC(C)=O [(E)-3-(3,4-Diacetoxyphenyl)-N-(4-(3,5-Dimethylphenylsulfamoyl)phenyl)acrylamide (10k)] showed an IC50 [1] of 80 µM and an IC50 [2] of 16 µM.

CC(=O)Oc1ccc(/C=C/C(=O)Nc2ccc(S(=O)(=O)Nc3cccc(Cl)c3F)cc2)cc1OC(C)=O [(E)-3-(3,4-Diacetoxyphenyl)-N-(4-(3-chloro-2-fluorophenylsulfamoyl)phenyl)acrylamide (10l)] gave an IC50 [1] of 50 µM and an IC50 [2] of 13 µM.

With O=C(/C=C/c1ccc(O)c(O)c1)Nc1ccc(S(=O)(=O)Nc2ccccc2Br)cc1 [(E)-3-(3,4-Dihydroxyphenyl)-N-(4-(2-Bromophenylsulfamoyl)phenyl)acrylamide (11g)] the IC50 [1] was 11 µM and the IC50 [2] was 9 µM.

In the case of O=C(/C=C/c1ccc(O)c(O)c1)Nc1ccc(S(=O)(=O)Nc2ccc(Cl)c(Cl)c2)cc1 [(E)-3-(3,4-Dihydroxyphenyl)-N-(4-(3,4-Dichlorophenylsulfamoyl)phenyl)acrylamide (11h)], the IC50 [1] is reported as 17 µM and the IC50 [2] is reported as 6 µM.

O=C(/C=C/c1ccc(O)c(O)c1)Nc1ccc(S(=O)(=O)Nc2ccc(F)c(F)c2)cc1 [(E)-3-(3,4-Dihydroxyphenyl)-N-(4-(3,4-Difluorophenylsulfamoyl)phenyl)acrylamide (11b)] was tested, and the IC50 [1] was 11 µM and the IC50 [2] was 6 µM.

With Cc1cc(C)cc(NS(=O)(=O)c2ccc(NC(=O)/C=C/c3ccc(O)c(O)c3)cc2)c1 [(E)-3-(3,4-Dihydroxyphenyl)-N-(4-(3,5-Dimethylphenylsulfamoyl)phenyl)acrylamide (11k)] the IC50 [1] was 5 µM and the IC50 [2] was 4 µM.

O=C(/C=C/c1ccc(O)c(O)c1)Nc1ccc(S(=O)(=O)Nc2cccc(Br)c2)cc1 [(E)-3-(3,4-Dihydroxyphenyl)-N-(4-(3-Bromophenylsulfamoyl)phenyl)acrylamide (11f)] gave an IC50 [1] of 49 µM and an IC50 [2] of 22 µM.

O=C(/C=C/c1ccc(O)c(O)c1)Nc1ccc(S(=O)(=O)Nc2ccc(F)c(Br)c2)cc1 [(E)-3-(3,4-Dihydroxyphenyl)-N-(4-(3-bromo-4-fluorophenylsulfamoyl)phenyl)acrylamide (11u)] gave an IC50 [1] of 8 µM and an IC50 [2] of 4 µM.

With O=C(/C=C/c1ccc(O)c(O)c1)Nc1ccc(S(=O)(=O)Nc2cccc(Cl)c2F)cc1 [(E)-3-(3,4-Dihydroxyphenyl)-N-(4-(3-chloro-2-fluorophenylsulfamoyl)phenyl)acrylamide (11l)] the IC50 [1] was 22 µM and the IC50 [2] was 14 µM.

O=C(/C=C/c1ccc(O)c(O)c1)Nc1ccc(S(=O)(=O)Nc2ccc(F)c(Cl)c2)cc1 [(E)-3-(3,4-Dihydroxyphenyl)-N-(4-(3-chloro-4-fluorophenylsulfamoyl)phenyl)acrylamide (11v)] showed an IC50 [1] of 8 µM and an IC50 [2] of 4 µM.

O=C(/C=C/c1ccc(O)c(O)c1)Nc1ccc(S(=O)(=O)Nc2ccc(Br)cc2)cc1 [(E)-3-(3,4-Dihydroxyphenyl)-N-(4-(4-Bromophenylsulfamoyl)phenyl)acrylamide (11e)] gave an IC50 [1] of 35 µM and an IC50 [2] of 8 µM.

CCCCc1ccc(NS(=O)(=O)c2ccc(NC(=O)/C=C/c3ccc(O)c(O)c3)cc2)cc1 [(E)-3-(3,4-Dihydroxyphenyl)-N-(4-(4-Butylphenylsulfamoyl)phenyl)acrylamide (11i)] gave an IC50 [1] of 25 µM and an IC50 [2] of 7 µM.

CCOc1ccc(NS(=O)(=O)c2ccc(NC(=O)/C=C/c3ccc(O)c(O)c3)cc2)cc1 [(E)-3-(3,4-Dihydroxyphenyl)-N-(4-(4-Ethoxylphenylsulfamoyl)phenyl)acrylamide (11j)] gave an IC50 [1] of 35 µM and an IC50 [2] of 9 µM.

O=C(/C=C/c1ccc(O)c(O)c1)Nc1ccc(S(=O)(=O)NCc2ccc(F)cc2)cc1 [(E)-3-(3,4-Dihydroxyphenyl)-N-(4-(4-Fluorobenzylsulfamoyl)phenyl)acrylamide (11d)] was tested, and the IC50 [1] was 24 µM and the IC50 [2] was 9 µM.

With O=C(/C=C/c1ccc(O)c(O)c1)Nc1ccc(S(=O)(=O)NCCc2ccc(F)cc2)cc1 [(E)-3-(3,4-Dihydroxyphenyl)-N-(4-(4-Fluorophenethylsulfamoyl)phenyl)acrylamide (11t)] the IC50 [1] was 14 µM and the IC50 [2] was 10 µM.

Compound O=C(/C=C/c1ccc(O)c(O)c1)Nc1ccc(S(=O)(=O)Nc2ccc(F)cc2)cc1 [(E)-3-(3,4-Dihydroxyphenyl)-N-(4-(4-Fluorophenylsulfamoyl)phenyl)acrylamide (11a)] has an IC50 [1] of 8 µM and an IC50 [2] of 5 µM.

Compound O=C(/C=C/c1ccc(O)c(O)c1)Nc1ccc(S(=O)(=O)Nc2ccccc2)cc1 [(E)-3-(3,4-Dihydroxyphenyl)-N-(4-phenylsulfamoylphenyl)acrylamide (11m)] has an IC50 [1] of 16 µM and an IC50 [2] of 12 µM.

CC(=O)Oc1cc(C(=O)Nc2ccc(S(=O)(=O)Nc3ccccc3Br)cc2)cc(OC(C)=O)c1OC(C)=O [N-(4-(2-Bromophenylsulfamoyl)phenyl)-3,4,5-triacetoxybenzamide (8g)] gave an IC50 [1] of 12 µM and an IC50 [2] of 3 µM.

Work on O=C(Nc1ccc(S(=O)(=O)Nc2ccccc2Br)cc1)c1cc(O)c(O)c(O)c1 [N-(4-(2-Bromophenylsulfamoyl)phenyl)galloylamide (9g)] yielded an IC50 [1] of 5 µM and an IC50 [2] of 1.4 µM.

CC(=O)Oc1cc(C(=O)Nc2ccc(S(=O)(=O)Nc3ccccc3C)cc2)cc(OC(C)=O)c1OC(C)=O [N-(4-(2-Methylphenylsulfamoyl)phenyl)-3,4,5-triacetoxybenzamide (8s)] was tested, and the IC50 [1] was greater than 10 µM and the IC50 [2] was 1.6 µM.

In the case of Cc1ccccc1NS(=O)(=O)c1ccc(NC(=O)c2cc(O)c(O)c(O)c2)cc1 [N-(4-(2-Methylphenylsulfamoyl)phenyl)galloylamide (9s)], the IC50 [1] is reported as 7 µM and the IC50 [2] is reported as 2 µM.

O=C(Nc1ccc(S(=O)(=O)Nc2ccc(Cl)c(Cl)c2)cc1)c1cc(O)c(O)c(O)c1 [N-(4-(3,4-Dichlorophenylsulfamoyl)phenyl)galloylamide (9h)] gave an IC50 [1] of 5 µM and an IC50 [2] of 1.7 µM.

In the case of Cc1ccc(NS(=O)(=O)c2ccc(NC(=O)c3cc(O)c(O)c(O)c3)cc2)cc1C [N-(4-(3,4-Dimethylphenylsulfamoyl)phenyl)galloylamide (9p)], the IC50 [1] is reported as 8 µM and the IC50 [2] is reported as 8 µM.

With Cc1cc(C)cc(NS(=O)(=O)c2ccc(NC(=O)c3cc(O)c(O)c(O)c3)cc2)c1 [N-(4-(3,5-Dimethylphenylsulfamoyl)phenyl)galloylamide (9k)] the IC50 [1] was 8 µM and the IC50 [2] was 2.5 µM.

For O=C(Nc1ccc(S(=O)(=O)Nc2cccc(Br)c2)cc1)c1ccc(O)c(O)c1 [N-(4-(3-Bromophenylsulfamoyl)phenyl)3,4-dihydroxybenzamide (11x)], the IC50 [1] was 45 µM and the IC50 [2] was 15 µM.

Compound O=C(Nc1ccc(S(=O)(=O)Nc2cccc(Br)c2)cc1)c1cc(O)c(O)c(O)c1 [N-(4-(3-Bromophenylsulfamoyl)phenyl)galloylamide (9f)] has an IC50 [1] of 2 µM and an IC50 [2] of 0.7 µM.

Compound CC(=O)Oc1cc(C(=O)Nc2ccc(S(=O)(=O)Nc3cccc(Cl)c3F)cc2)cc(OC(C)=O)c1OC(C)=O [N-(4-(3-chloro-2-fluorophenylsulfamoyl)phenyl)-3,4,5-triacetoxybenzamide (8l)] has an IC50 [1] of 5 µM and an IC50 [2] of 2 µM.

O=C(Nc1ccc(S(=O)(=O)Nc2cccc(Cl)c2F)cc1)c1cc(O)c(O)c(O)c1 [N-(4-(3-chloro-2-fluorophenylsulfamoyl)phenyl)galloylamide (9l)] showed an IC50 [1] of 1.3 µM and an IC50 [2] of 0.8 µM.

Compound O=C(Nc1ccc(S(=O)(=O)Nc2ccc(Br)cc2)cc1)c1cc(O)c(O)c(O)c1 [N-(4-(4-Bromophenylsulfamoyl)phenyl)galloylamide (9e)] has an IC50 [1] of 3 µM and an IC50 [2] of 0.7 µM.

CCCCc1ccc(NS(=O)(=O)c2ccc(NC(=O)c3cc(O)c(O)c(O)c3)cc2)cc1 [N-(4-(4-Butylphenylsulfamoyl)phenyl)galloylamide (9i)] gave an IC50 [1] of 3 µM and an IC50 [2] of 2.5 µM.

For O=C(Nc1ccc(S(=O)(=O)NCc2ccc(Cl)cc2)cc1)c1cc(O)c(O)c(O)c1 [N-(4-(4-Chlorobenzylsulfamoyl)phenyl)galloylamide (9o)], the IC50 [1] was 5 µM and the IC50 [2] was 2 µM.

O=C(Nc1ccc(S(=O)(=O)Nc2ccc(Cl)cc2)cc1)c1cc(O)c(O)c(O)c1 [N-(4-(4-Chlorophenylsulfamoyl)phenyl)galloylamide (9n)] showed an IC50 [1] of 6 µM and an IC50 [2] of 2 µM.

CCOc1ccc(NS(=O)(=O)c2ccc(NC(=O)c3cc(O)c(O)c(O)c3)cc2)cc1 [N-(4-(4-Ethoxylphenylsulfamoyl)phenyl)galloylamide (9j)] showed an IC50 [1] of 6 µM and an IC50 [2] of 1.3 µM.

O=C(Nc1ccc(S(=O)(=O)NCc2ccc(F)cc2)cc1)c1cc(O)c(O)c(O)c1 [N-(4-(4-Fluorobenzylsulfamoyl)phenyl)galloylamide (9d)] showed an IC50 [1] of 7 µM and an IC50 [2] of 2 µM.

Work on O=C(Nc1ccc(S(=O)(=O)Nc2ccc(F)cc2)cc1)c1cc(O)c(O)c(O)c1 [N-(4-(4-Fluorophenylsulfamoyl)phenyl)galloylamide (9a)] yielded an IC50 [1] of 7 µM and an IC50 [2] of 0.9 µM.

COc1ccc(NS(=O)(=O)c2ccc(NC(=O)c3cc(O)c(O)c(O)c3)cc2)cc1 [N-(4-(4-Methoxylphenylsulfamoyl)phenyl)galloylamide (9q)] was tested, and the IC50 [1] was 5 µM and the IC50 [2] was 4.5 µM.

O=C(Nc1ccc(S(=O)(=O)Nc2ccc([N+](=O)[O-])cc2)cc1)c1cc(O)c(O)c(O)c1 [N-(4-(4-Nitrophenylsulfamoyl)phenyl)galloylamide (9r)] showed an IC50 [1] of 4 µM and an IC50 [2] of 3 µM.
